Experimental data reported in patent publication US20190256509A1, “HISTONE DEMETHYLASE INHIBITORS” (CHRYSALIS, INC., priority 2016, published 2019).

These compounds were tested against T1, KDM5B enzyme (Homo sapiens, UniProt Q9UGL1) (assay: KDM5B HTRF (TR-FRET) demethylase inhibition assay). Conditions: 1.2 nM KDM5B, 30 nM Biotin-H3K4Me3 1-21 substrate, 10 point dose-response.
T1 construct: Reaction Biology Corp (named for the assay, not expressly for the enzyme)
Format: biochemical
Description: Ten point dose-response curves for the compounds of Examples 1-135 were determined using a homogeneous time resolved fluorescence (HTRF) assay (Reaction Biology Corp, Malvern, Pa.). This assay combines fluorescence resonance energy transfer (FRET) with time resolve (TR) measurements (TR-FRET). The KDM5B α-ketoglutarate-dependent demethylase activity is calculated by measuring demethylation of a biotin labeled histone tri-methylated H3K4 substrate using an europium-cryptate (Eu)-labeled antibody donor specific for dimethylated histone H3K4 and a Streptavidin-XL665 acceptor that binds to the biotin group of substrate, and detecting FRET by exciting the reaction mixture at 320 nm and reading dual emissions at 615 nm and 665 nm.
Briefly, compounds disclosed herein were solubilized in DMSO and a series of 10, three-fold serial dilutions were made for each compound in 100% DMSO. The initial starting concentration for the serial dilutions of each compound was 10 μM or 100 μM. Control samples lacking compound, KDM5B enzyme or various reaction components also were prepared and processed in parallel with compound test samples.
An aliquot of each serial dilution of test compound was added to a 384 well plate (Corning Cat #3572) containing 1.2 nM KDM5B enzyme suspended in 50 mM Hepes, pH7.5, 50 mM NaCl, 0.01% Tween 20, 0.1% BSA, and 1% DMSO (final concentrations) in a 10 microliter reaction volume using a LABCYTE ECHO liquid handler. The samples were mixed, subjected to centrifugation and the plate was pre-incubated at room temperature for 15 minutes (min), to which 30 nM Biotin-H3K4Me3 1-21 substrate (Anaspec, Freemont Calif., Cat #64192), 20 μM Fe(II) and 20 μM α-ketoglutarate co-factors, and 100 μM Ascorbate were added to initiate the enzymatic reaction. The reaction mixture was incubated at room temperature for 45 minutes. A 10 μl aliquot of a detection mixture of Eu-labeled anti-histone H3K4Me2 antibody (CisBIO, Bedford Mass., Cat #610AXLB) and Streptavidin-XL665 (CisBIO, Bedford Mass., Cat #610 SAXLB) in 200 mM potassium fluoride and 10 mM EDTA was added and kinetic measurements were read at 5 minute intervals for a period of 30 minutes using an Envision Multiplate Reader (PerkinElmer Model 2102; excitation at 320 nm and emission reads at 615 nm and 665 nm). The IC50 value for each compound was determined from the 665/615 ratio obtained for each 10 point dose-response curve using GraphPad Prism 4 software with a sigmodial dose response.

T1 sequence (Q9UGL1 whole entry): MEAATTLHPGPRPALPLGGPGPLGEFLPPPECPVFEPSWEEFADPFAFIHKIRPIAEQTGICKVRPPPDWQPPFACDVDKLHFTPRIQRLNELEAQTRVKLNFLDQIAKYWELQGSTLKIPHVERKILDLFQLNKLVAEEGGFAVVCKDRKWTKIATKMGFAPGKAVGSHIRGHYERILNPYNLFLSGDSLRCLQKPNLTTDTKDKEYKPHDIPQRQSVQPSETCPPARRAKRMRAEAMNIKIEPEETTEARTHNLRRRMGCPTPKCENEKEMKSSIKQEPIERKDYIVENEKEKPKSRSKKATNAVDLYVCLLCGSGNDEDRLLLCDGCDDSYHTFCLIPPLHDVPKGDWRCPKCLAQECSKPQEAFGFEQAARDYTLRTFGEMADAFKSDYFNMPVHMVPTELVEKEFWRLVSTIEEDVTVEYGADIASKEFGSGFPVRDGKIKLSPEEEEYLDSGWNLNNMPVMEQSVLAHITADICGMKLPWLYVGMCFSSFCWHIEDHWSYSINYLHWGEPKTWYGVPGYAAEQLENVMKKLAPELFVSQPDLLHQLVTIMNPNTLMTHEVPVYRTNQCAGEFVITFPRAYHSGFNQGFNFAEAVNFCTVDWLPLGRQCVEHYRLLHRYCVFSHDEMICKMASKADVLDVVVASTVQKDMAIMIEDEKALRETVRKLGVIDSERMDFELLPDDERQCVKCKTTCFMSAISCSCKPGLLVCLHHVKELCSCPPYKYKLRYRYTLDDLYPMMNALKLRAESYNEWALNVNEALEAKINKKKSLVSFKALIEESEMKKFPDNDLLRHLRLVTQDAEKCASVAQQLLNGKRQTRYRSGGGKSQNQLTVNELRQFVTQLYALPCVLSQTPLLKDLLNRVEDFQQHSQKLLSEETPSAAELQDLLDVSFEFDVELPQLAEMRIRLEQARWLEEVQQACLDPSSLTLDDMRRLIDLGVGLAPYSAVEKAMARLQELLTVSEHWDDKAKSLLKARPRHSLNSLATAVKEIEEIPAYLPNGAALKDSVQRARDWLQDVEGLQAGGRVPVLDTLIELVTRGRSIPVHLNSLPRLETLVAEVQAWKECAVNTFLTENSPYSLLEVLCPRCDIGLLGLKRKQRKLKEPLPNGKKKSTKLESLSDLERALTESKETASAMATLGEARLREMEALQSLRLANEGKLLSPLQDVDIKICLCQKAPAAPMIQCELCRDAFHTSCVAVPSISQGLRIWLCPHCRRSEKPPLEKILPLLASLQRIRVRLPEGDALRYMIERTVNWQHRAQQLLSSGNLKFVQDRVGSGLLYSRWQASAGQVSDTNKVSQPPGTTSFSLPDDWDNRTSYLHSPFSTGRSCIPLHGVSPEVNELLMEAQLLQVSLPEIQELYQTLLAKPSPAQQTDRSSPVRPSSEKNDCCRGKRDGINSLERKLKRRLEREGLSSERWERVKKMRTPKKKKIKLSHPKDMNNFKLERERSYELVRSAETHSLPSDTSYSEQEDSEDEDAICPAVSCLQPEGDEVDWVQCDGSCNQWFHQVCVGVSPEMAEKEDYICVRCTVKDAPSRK

First: O=C(O)c1c(NCc2ccc(OC(F)(F)F)cc2)ccc2nccn12 [Example 95]
Second: O=C(O)c1c(NCc2ccc(C(F)(F)F)cc2)ccc2nccn12 [Example 55]
The IC50 of the first is higher: over 1 µM for the first, 0.5 to 1 µM for the second. The second is the more potent here.

Cn1nccc1-c1cccc(CNc2ccc3nccn3c2C(=O)O)c1 [Example 127] and O=C(O)c1c(NCc2cccc(-c3cccnc3)c2)ccc2nccn12 [Example 126] cannot be ordered by IC50: at most 0.5 µM for the first, 0.5 to 1 µM for the second.

O=C(O)c1c(NCc2cccc(OC(F)(F)F)c2)ccc2nccn12 [Example 89] and O=C(O)c1c(NCc2cccc(F)c2)ccc2nccn12 [Example 50] cannot be ordered by IC50: over 1 µM for the first, over 1 µM for the second.

O=C(O)c1c(NCc2ccc(F)c(C(F)(F)F)c2)ccc2nccn12 [Example 62] and O=C(O)c1c(NCc2ccc(Cl)c(C(F)(F)F)c2)ccc2nccn12 [Example 3] fall in the same range of IC50: 0.5 to 1 µM for the first, 0.5 to 1 µM for the second.

Compared with O=C(O)c1c(NCc2ccc3c(c2)OCCO3)ccc2nccn12 [Example 80], O=C(O)c1c(NCc2ccc3c(c2)OC(F)(F)O3)ccc2nccn12 [Example 77] is lower in IC50: over 1 µM for the first, 0.5 to 1 µM for the second.

O=C(O)c1c(NCc2cc(C(F)(F)F)ccc2Cl)ccc2nccn12 [Example 5] and O=C(O)c1c(NCc2cc(C(F)(F)F)ccc2F)ccc2nccn12 [Example 43] cannot be ordered by IC50: over 1 µM for the first, over 1 µM for the second.

O=C(O)c1c(NCc2ccc(Cl)cc2Cl)ccc2nccn12 [Example 72] and O=C(O)c1c(NCc2cc(Cl)ccc2Cl)ccc2nccn12 [Example 34] fall in the same range of IC50: 0.5 to 1 µM for the first, 0.5 to 1 µM for the second.

O=C(O)c1c(NCc2ccccc2OC(F)F)ccc2nccn12 [Example 12] and O=C(O)c1c(NCc2ccccc2OC(F)(F)F)ccc2nccn12 [Example 37] fall in the same range of IC50: 0.5 to 1 µM for the first, 0.5 to 1 µM for the second.

First: Cn1c(=O)n(C)c2cc(CNc3ccc4nccn4c3C(=O)O)ccc21 [Example 76]
Second: Cc1ccc(CNc2ccc3nccn3c2C(=O)O)cc1F [Example 49]
The IC50 of the first is lower: 0.5 to 1 µM for the first, over 1 µM for the second.

Compared with Cc1ccc(Cl)cc1CNc1ccc2nccn2c1C(=O)O [Example 26], O=C(O)c1c(NCc2cc(Cl)ccc2F)ccc2nccn12 [Example 66] is higher in IC50: 0.5 to 1 µM for the first, over 1 µM for the second. The first is the more potent here.

First: N#Cc1cccc(CNc2ccc3nccn3c2C(=O)O)c1 [Example 128]
Second: CS(=O)(=O)c1cccc(CNc2ccc3nccn3c2C(=O)O)c1 [Example 88]
The IC50 of the first is higher: over 1 µM for the first, at most 0.5 µM for the second. The second is the more potent here.

COc1cc(Cl)ccc1CNc1ccc2ncc(C(=O)O)n2c1 [Example 118] and COc1ccc(Cl)cc1CNc1ccc2ncc(C(=O)O)n2c1 [Example 112] cannot be ordered by IC50: over 1 µM for the first, over 1 µM for the second.

O=C(O)c1c(NCc2ccc(F)cc2F)ccc2nccn12 [Example 81] and O=C(O)c1c(NCc2ccc(F)cc2C(F)(F)F)ccc2nccn12 [Example 60] cannot be ordered by IC50: 0.5 to 1 µM for the first, at most 0.5 µM for the second.

O=C(O)c1c(NCc2cc(F)cc(F)c2)ccc2nccn12 [Example 73] and O=C(O)c1c(NCc2cc(F)cc(C(F)(F)F)c2)ccc2nccn12 [Example 93] cannot be ordered by IC50: over 1 µM for the first, over 1 µM for the second.

O=C(O)c1cnc2cc(Oc3ccccc3)ccn12 [Example 104] and O=C(O)c1cnc2cc(C(O)c3ccccc3)ccn12 (stereo not drawn) [Example 102] cannot be ordered by IC50: over 1 µM for the first, over 1 µM for the second.

Cc1nc2cc(C(O)c3ccccc3)ccn2c1C(=O)O (stereo not drawn) [Example 101] and O=C(O)c1c(NCc2ccccc2F)ccc2nccn12 [Example 85] cannot be ordered by IC50: over 1 µM for the first, over 1 µM for the second.

First: O=C(O)c1c(NCc2ccc(F)cc2)ccc2nccn12 [Example 23]
Second: O=C(O)c1c(NCc2ccc(Cl)cc2)ccc2nccn12 [Example 74]
The IC50 of the first is lower: at most 0.5 µM for the first, over 1 µM for the second. The first is the more potent here.

COc1ccc(CNc2ccc3nccn3c2C(=O)O)c(OC)c1 [Example 1] and COc1cc(Cl)ccc1CNc1ccc2nccn2c1C(=O)O [Example 8] cannot be ordered by IC50: at most 0.5 µM for the first, at most 0.5 µM for the second.

CN1CCN(c2ccccc2CNc2ccc3nccn3c2C(=O)O)CC1 [Example 32] and CN1CCN(c2ccc(CNc3ccc4nccn4c3C(=O)O)cc2)CC1 [Example 21] cannot be ordered by IC50: at most 0.5 µM for the first, at most 0.5 µM for the second.

COc1cc(Cl)ccc1COc1cc(C(=O)O)n2ccnc2c1 [Example 123] and COc1cc(Cl)ccc1CNc1ccc2nccn2c1C#N [Example 110] cannot be ordered by IC50: over 1 µM for the first, over 1 µM for the second.

O=C(O)c1c(NCc2c(F)cccc2F)ccc2nccn12 [Example 36] and O=C(O)c1c(NCc2c(F)cccc2Cl)ccc2nccn12 [Example 39] cannot be ordered by IC50: over 1 µM for the first, over 1 µM for the second.

Compared with COc1cc(C)ccc1-c1ccc2ncc(C(=O)O)n2c1 [Example 116], COc1ccc(CNc2ccc3nccn3c2C(=O)O)cc1Cl [Example 47] is lower in IC50: over 1 µM for the first, 0.5 to 1 µM for the second.

Cc1cccc(Cl)c1CNc1ccc2nccn2c1C(=O)O [Example 14] and Cc1ccc(Cl)c(CNc2ccc3nccn3c2C(=O)O)c1F [Example 70] cannot be ordered by IC50: over 1 µM for the first, over 1 µM for the second.

First: O=C(O)c1c(NCc2ccc3occc3c2)ccc2nccn12 [Example 29]
Second: O=C(O)c1c(NCc2ccc3sccc3c2)ccc2nccn12 [Example 30]
The IC50 of the first is lower: 0.5 to 1 µM for the first, over 1 µM for the second. The first is the more potent here.

CC(=O)N(C)c1cccc(CNc2ccc3nccn3c2C(=O)O)c1 [Example 100] and COc1ccc(CNc2ccc3nccn3c2C(=O)O)cc1O [Example 51] cannot be ordered by IC50: 0.5 to 1 µM for the first, at most 0.5 µM for the second.

First: COc1cc(CN2CCC(NCCc3ccccc3)CC2)ccc1CNc1ccc2nccn2c1C(=O)O [Example 130]
Second: O=C(O)c1c(NCc2cccc3ccccc23)ccc2nccn12 [Example 31]
The IC50 of the first is lower: 0.5 to 1 µM for the first, over 1 µM for the second.

Cc1ccc(CNc2ccc3nccn3c2C(=O)O)c(F)c1F [Example 33] and Cc1ccc(F)c(CNc2ccc3nccn3c2C(=O)O)c1F [Example 35] cannot be ordered by IC50: over 1 µM for the first, over 1 µM for the second.

CCN1CCN(c2ccc(CNc3ccc4nccn4c3C(=O)O)c3c2CCCC3)CC1 [Example 124] and Cc1c(F)cccc1CNc1ccc2nccn2c1C(=O)O [Example 20] cannot be ordered by IC50: over 1 µM for the first, over 1 µM for the second.

Compared with COc1c(F)cc(CNc2ccc3nccn3c2C(=O)O)cc1F [Example 46], COc1cc(CNc2ccc3nccn3c2C(=O)O)ccc1F [Example 97] is lower in IC50: over 1 µM for the first, 0.5 to 1 µM for the second.

O=C(O)c1c(NCc2cccc(-c3ccccc3)c2)ccc2nccn12 [Example 52] and COc1ccc(-c2cccc(CNc3ccc4nccn4c3C(=O)O)c2)cc1 [Example 125] cannot be ordered by IC50: over 1 µM for the first, over 1 µM for the second.

O=C(O)c1c(NCc2cc(F)ccc2C(F)(F)F)ccc2nccn12 [Example 67] and O=C(O)c1c(NCc2c(F)cc(F)cc2F)ccc2nccn12 [Example 71] cannot be ordered by IC50: at most 0.5 µM for the first, 0.5 to 1 µM for the second.

First: Cc1ccc(F)c(CNc2ccc3nccn3c2C(=O)O)c1Cl [Example 38]
Second: O=C(O)c1c(NCc2ccccc2Cl)ccc2nccn12 [Example 15]
The IC50 of the first is higher: over 1 µM for the first, 0.5 to 1 µM for the second.

COc1ccc(CNc2ccc3nccn3c2C(=O)O)cc1 [Example 24] and CC(C)Oc1ccc(CNc2ccc3nccn3c2C(=O)O)cc1 [Example 28] cannot be ordered by IC50: over 1 µM for the first, over 1 µM for the second.

O=C(O)c1c(NCc2ccc(OC(F)F)cc2)ccc2nccn12 [Example 22] and O=C(O)c1c(NCc2ccc(Oc3ccc(F)cc3)cc2)ccc2nccn12 [Example 54] cannot be ordered by IC50: over 1 µM for the first, over 1 µM for the second.

COc1cc(Cl)ccc1CNc1ccc2nccn2c1-c1nn[nH]n1 [Example 111] and COc1ccc(Cl)cc1CNc1ccc2nc(C)cn2c1C(=O)O [Example 114] cannot be ordered by IC50: over 1 µM for the first, over 1 µM for the second.

First: O=C(O)c1c(NCc2cc(Cl)cc(Cl)c2)ccc2nccn12 [Example 18]
Second: O=C(O)c1cc(CCCN2CCC(c3cc(Cl)cc(Cl)c3)CC2)cc2nccn12 [Example 135]
The IC50 of the first is higher: over 1 µM for the first, at most 0.5 µM for the second.
